Active and inactive are the calls of the source. No cut-off for these calls is given here.
Key:
[1] = Toxicity in BALB/c nude mouse xenografted with human Lenvatinib-resistant Huh7/Len cells assessed as changes in body weight at 3 mg/kg, IG cotreated with lobeline 5 times per week for 3 weeks; format: organism-based; settings: in vivo, po, 504 h
[2] = test system: Lenvatinib-resistant Hep3B/Len; experiment: Inhibition of cell migration in human Lenvatinib-resistant Hep3B/Len cells at 5 uM incubated for 48 hrs by transwell assay; format: functional, cell-based
[3] = test system: Lenvatinib-resistant Huh7/Len; experiment: Antitumor activity against human Lenvatinib-resistant Huh7/Len cells xenografted in BALB/c nude mouse assessed as reduction in Ki-67 protein expression tumor tissue at 3 mg/kg, IG cotreated with lobeline 5 times per week for 3 weeks by immunohistochemistry analysis; format: functional; parameters: scale not given: the % may be the effect or the level left
[4] = test system: Lenvatinib-resistant HCC/Len; experiment: Antitumor activity against human Lenvatinib-resistant HCC/Len cells xenografted in BALB/c nude mouse model of PDX assessed as tumor growth inhibition at 3 mg/kg, IG cotreated with lobeline 5 times per week for 3 weeks; format: functional, organism-based
[5] = Toxicity in BALB/c nude mouse PDX model xenografted with human Lenvatinib-resistant HCC/Len cells assessed as changes in organ index at 3 mg/kg, IG administered 5 times per week for 3 weeks; format: organism-based; settings: in vivo, po, 504 h
[6] = test system: Lenvatinib-resistant Huh7/Len; experiment: Inhibition of cell migration in human Lenvatinib-resistant Huh-7/Len cells at 5 uM incubated for 48 hrs in presence of lobeline by transwell assay relative to control; format: functional
[7] = test system: Lenvatinib-resistant Huh7/Len; experiment: Antiproliferative activity against human Lenvatinib-resistant Huh7/Len cells assessed as inhibition of clone formation ability at 5 to 10 uM preincubated for 72 hrs and measured after 7 to 10 days in presence of lobeline by crystal violet staining based assay; format: functional, cell-based; settings: dose 5-10 µM, time 10-13 day
[8] = test system: Lenvatinib-resistant Huh7/Len; experiment: Antitumor activity against human Lenvatinib-resistant Huh7/Len cells xenografted in BALB/c nude mouse assessed as tumor growth inhibition at 3 mg/kg, IG cotreated with lobeline 5 times per week for 3 weeks; format: functional, organism-based
[9] = test system: Lenvatinib-resistant Hep3B/Len; experiment: Antiproliferative activity against human Lenvatinib-resistant Hep3B/Len cells assessed as inhibition of clone formation ability at 5 to 10 uM preincubated for 72 hrs and measured after 7 to 10 days by crystal violet staining based assay; format: functional, cell-based; settings: dose 5-10 µM, time 10-13 day
[10] = test system: Lenvatinib-resistant Huh7/Len; experiment: Antiproliferative activity against human Lenvatinib-resistant Huh7/Len cells assessed as inhibition of cell viability up to 40 uM after 72 hrs in presence of lobeline by CCK-8 assay; format: functional, cell-based
[11] = test system: Lenvatinib-resistant HCC/Len; experiment: Antitumor activity against human Lenvatinib-resistant HCC/Len cells xenografted in BALB/c nude mouse model of PDX assessed as reduction in Ki-67 protein expression tumor tissue at 3 mg/kg, IG cotreated with lobeline 5 times per week for 3 weeks by immunohistochemistry analysis; format: functional, organism-based
[12] = Toxicity in BALB/c nude mouse xenografted with human Lenvatinib-resistant Huh7/Len cells assessed as changes in organ index at 3 mg/kg, IG administered 5 times per week for 3 weeks; format: organism-based; settings: in vivo, po, 504 h
[13] = test system: Lenvatinib-resistant Huh7/Len; experiment: Antitumor activity against human Lenvatinib-resistant Huh7/Len cells xenografted in BALB/c nude mouse assessed as inhibition of tumor volume at 3 mg/kg, IG cotreated with lobeline 5 times per week for 3 weeks relative to control; format: functional; settings: po, 504 h
[14] = Toxicity in BALB/c nude mouse xenografted with human Lenvatinib-resistant Huh7/Len cells assessed as changes in body weight at 3 mg/kg, IG administered 5 times per week for 3 weeks; format: organism-based; settings: in vivo, po, 504 h
[15] = test system: Lenvatinib-resistant Hep3B/Len; experiment: Antiproliferative activity against human Lenvatinib-resistant Hep3B/Len cells assessed as inhibition of cell viability up to 40 uM after 72 hrs in presence of lobeline by CCK-8 assay; format: functional, cell-based
[16] = test system: Lenvatinib-resistant HCC/Len; experiment: Antitumor activity against human Lenvatinib-resistant HCC/Len cells xenografted in BALB/c nude mouse model of PDX assessed as inhibition of tumor volume at 3 mg/kg, IG cotreated with lobeline 5 times per week for 3 weeks relative to control; format: functional; settings: po, 504 h
[17] = test system: Lenvatinib-resistant Hep3B/Len; experiment: Antiproliferative activity against human Lenvatinib-resistant Hep3B/Len cells assessed as inhibition of clone formation ability at 5 to 10 uM preincubated for 72 hrs and measured after 7 to 10 days in presence of lobeline by crystal violet staining based assay; format: functional, cell-based; settings: dose 5-10 µM, time 10-13 day
[18] = test system: Lenvatinib-resistant Hep3B/Len; experiment: Inhibition of cell migration in human Lenvatinib-resistant Hep3B/Len cells at 5 uM incubated for 48 hrs in presence of lobeline by transwell assay relative to control; format: functional
[19] = Toxicity in BALB/c nude mouse PDX model xenografted with human Lenvatinib-resistant HCC/Len cells assessed as changes in body weight at 3 mg/kg, IG cotreated with lobeline 5 times per week for 3 weeks administered 5 times per week for 3 weeks; format: organism-based; settings: in vivo, po, 504 h
[20] = Toxicity in BALB/c nude mouse PDX model xenografted with human Lenvatinib-resistant HCC/Len cells assessed as changes in organ index at 3 mg/kg, IG cotreated with lobeline 5 times per week for 3 weeks administered 5 times per week for 3 weeks; format: organism-based; settings: in vivo, po, 504 h
[21] = test system: Lenvatinib-resistant Huh7/Len; experiment: Inhibition of cell migration in human Lenvatinib-resistant Huh7/Len cells at 5 uM incubated for 48 hrs by transwell assay; format: functional, cell-based
[22] = Toxicity in BALB/c nude mouse PDX model xenografted with human Lenvatinib-resistant HCC/Len cells assessed as changes in body weight at 3 mg/kg, IG administered 5 times per week for 3 weeks; format: organism-based; settings: in vivo, po, 504 h
[23] = test system: Lenvatinib-resistant HCC/Len; experiment: Antitumor activity against human Lenvatinib-resistant HCC/Len cells xenografted in BALB/c nude mouse model of PDX assessed as reduction in m6A protein expression tumor tissue at 3 mg/kg, IG cotreated with lobeline 5 times per week for 3 weeks by immunohistochemistry analysis; format: functional, organism-based
[24] = test system: Lenvatinib-resistant Huh7/Len; experiment: Antiproliferative activity against human Lenvatinib-resistant Huh7/Len cells assessed as inhibition of clone formation ability at 5 to 10 uM preincubated for 72 hrs and measured after 7 to 10 days by crystal violet staining based assay; format: functional, cell-based; settings: dose 5-10 µM, time 10-13 day
[25] = Toxicity in BALB/c nude mouse xenografted with human Lenvatinib-resistant Huh7/Len cells assessed as changes in organ index at 3 mg/kg, IG cotreated with lobeline 5 times per week for 3 weeks; format: organism-based; settings: in vivo, po, 504 h
[26] = test system: Lenvatinib-resistant Huh7/Len; experiment: Induction of apoptosis in human Lenvatinib-resistant Huh7/Len cells xenografted in BALB/c nude mouse assessed as apoptotic cells in tumor tissue at 3 mg/kg, IG cotreated with lobeline 5 times per week for 3 weeks by immunohistochemistry analysis; format: functional, organism-based

COc1cc2nccc(Oc3ccc(NC(=O)NC4CC4)c(Cl)c3)c2cc1C(N)=O [LENVATINIB]
Activity [1]: Non-Toxic
inhibition [2]: inactive
Activity [3]: 30%
TGI [4]: Active
Activity [5]: Non-Toxic
inhibition at 5 µM [6]: 42%
inhibition [7]: inactive
TGI [8]: Active
inhibition [9]: inactive
inhibition [10]: Active
Activity [11]: Active
Activity [12]: Non-Toxic
inhibition in vivo at 3 mg/kg [13]: 68%
Activity [14]: Non-Toxic
inhibition [15]: Active
inhibition in vivo at 3 mg/kg [16]: 60%
inhibition [17]: inactive
inhibition at 5 µM [18]: 42%
Activity [19]: Non-Toxic
Activity [20]: Non-Toxic
inhibition [21]: inactive
Activity [22]: Non-Toxic
Activity [23]: Active
inhibition [24]: inactive
Activity [25]: Non-Toxic
Activity [26]: Active

From ChEMBL document CHEMBL5584314, “Identification of an m6A Natural Inhibitor, Lobeline, That Reverses Lenvatinib Resistance in Hepatocellular Tumors” (J Nat Prod, 2024)
